In patent US12527325B2, “Pesticidally active diazine-amide compounds” (SYNGENTA CROP PROTECTION AG, priority 2019, dated 2026):

Legend:
Format in all cases: in vivo
[1] = tested on: Myzus persicae; experiment: Example B7: Myzus persicae (Green Peach Aphid): Systemic Activity; details: 144 h, test rate of 24 ppm, roots of pea seedlings in test solution, 6 days
Experimental: Example B7: Myzus persicae (Green Peach Aphid): Systemic Activity
Roots of pea seedlings infested with an aphid population of mixed ages were placed directly into aqueous test solutions prepared from 10′000 DMSO stock solutions. The samples were assessed for mortality 6 days after placing seedlings into test solutions.

[2] = tested on: Plutella xylostella; experiment: Example B5: Plutella xylostella (Diamond Back Moth); details: 192 h, application rate of 200 ppm, 24-well artificial diet, eggs, 8 days after infestation, read-out: control in at least one of the two categories (mortality or growth inhibition)
Experimental: Example B5: Plutella xylostella (Diamond Back Moth)
24-well microtiter plates with artificial diet were treated with aqueous test solutions prepared from 10′000 ppm DMSO stock solutions by pipetting. After drying, Plutella eggs were pipetted through a plastic stencil onto a gel blotting paper and the plate was closed with it. The samples were assessed for mortality and growth inhibition in comparison to untreated samples 8 days after infestation.

[3] = tested on: Chilo suppressalis; experiment: Example B4: Chilo suppressalis (Striped Rice Stemborer); details: 144 h, application rate of 200 ppm, artificial diet, L2 larvae, 6 days after infestation, read-out: control in at least one of the three categories (mortality, anti-feedant or growth inhibition)
Outline: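 Artificial diet was treated with aqueous dilutions made from 10'000 ppm DMSO stocks, dried, then infested with L2 larvae at 6–8 per well. Mortality, antifeedant effect and growth inhibition were assessed against untreated samples 6 days after infestation.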

[4] = tested on: Myzus persicae; experiment: Example B8: Myzus persicae (Green Peach Aphid): Intrinsic Activity; details: 120 h, test rate of 12 ppm, 24-well sucrose solution under Parafilm, 5 days after infestation
Source text: Example B8: Myzus persicae (Green Peach Aphid): Intrinsic Activity
Test compounds prepared from 10′000 ppm DMSO stock solutions were applied by pipette into 24-well microtiter plates and mixed with sucrose solution. The plates were closed with a stretched Parafilm. A plastic stencil with 24 holes was placed onto the plate and infested pea seedlings were placed directly on the Parafilm. The infested plate was closed with a gel blotting paper and another plastic stencil and then turned upside down. The samples were assessed for mortality 5 days after infestation.

[5] = tested on: Euschistus heros; experiment: Example B2: Euschistus heros (Neotropical Brown Stink Bug); details: 120 h, application rate of 200 ppm, sprayed soybean leaves, N2 nymphs, 5 days after infestation, read-out: control in at least one of the two categories (mortality or growth inhibition)
Experimental: Example B2: Euschistus heros (Neotropical Brown Stink Bug)
Soybean leaves on agar in 24-well microtiter plates were sprayed with aqueous test solutions prepared from 10′000 ppm DMSO stock solutions. After drying the leaves were infested with N2 nymphs. The samples were assessed for mortality and growth inhibition in comparison to untreated samples 5 days after infestation.

[6] = tested on: Frankliniella occidentalis; experiment: Example B3: Frankliniella occidentalis (Western Flower Thrips): Feeding/Contact Activity; details: foliar, 168 h, application rate of 200 ppm, sprayed sunflower leaf discs, population of mixed ages, 7 days after infestation
Experimental: Example B3: Frankliniella occidentalis (Western Flower Thrips): Feeding/Contact Activity
Sunflower leaf discs were placed on agar in 24-well microtiter plates and sprayed with aqueous test solutions prepared from […] stock solutions. After drying the leaf discs were infested with a Frankliniella population of mixed ages. The samples were assessed for mortality 7 days after infestation.

[7] = tested on: Spodoptera littoralis; experiment: Example B9: Spodoptera littoralis (Egyptian Cotton Leaf Worm), cotton leaf disc spray; details: foliar, 72 h, application rate of 200 ppm, sprayed cotton leaf discs, L1 larvae, 3 days after infestation, read-out: control in at least one of the three categories (mortality, anti-feedant or growth inhibition)
[8] = tested on: Diabrotica balteata; experiment: Example B1: Diabrotica balteata (Corn Root Worm); details: 96 h, application rate of 200 ppm, sprayed maize sprouts, L2 larvae, 4 days after infestation, read-out: control in at least one of the two categories (mortality or growth inhibition)
Experimental: Example B1: Diabrotica balteata (Corn Root Worm)
Maize sprouts placed onto an agar layer in 24-well microtiter plates were treated with aqueous test solutions prepared from 10′000 ppm DMSO stock solutions by spraying. After drying, the plates were infested with L2 larvae (6 to 10 per well). The samples were assessed for mortality and growth inhibition in comparison to untreated samples 4 days after infestation.

[9] = tested on: Spodoptera littoralis; experiment: Example B10: Spodoptera littoralis (Egyptian Cotton Leaf Worm), uptake by lettuce roots from agar; details: 144 h, test rate of 12.5 ppm, compound in agar absorbed by lettuce roots, eggs, 6 days after infestation, read-out: control in at least one of the three categories (mortality, anti-feedant, or growth inhibition)
Source text: Example B10: Spodoptera littoralis (Egyptian Cotton Leaf Worm)
Test compounds were applied by pipette from 10′000 ppm DMSO stock solutions into 24-well plates and mixed with agar. Lettuce seeds were placed onto the agar and the multi well plate was closed by another plate which contained also agar. After 7 days the compound was absorbed by the roots and the lettuce grew into the lid plate. The lettuce leaves were then cut off into the lid plate. Spodoptera eggs were pipetted through a plastic stencil onto a humid gel blotting paper and the lid plate was closed with it. The samples were assessed for mortality, anti-feedant effect and growth inhibition in comparison to untreated samples 6 days after infestation.

[10] = tested on: Plutella xylostella; experiment: Example B12: Plutella xylostella (Diamondback Moth), 96-well artificial diet; details: 216 h, application rate of 500 ppm, eggs, 9 days after infestation
Experimental: Example B12: Plutella xylostella (Diamondback Moth)
96-well microtiter plates containing artificial diet were treated with aqueous test solutions, prepared from 10′000 ppm DMSO stock solutions, by a liquid handling robot. After drying, eggs (˜30 per well) were infested onto a netted lid which was suspended above the diet. The eggs hatch and L1 larvae move down to the diet. The samples were assessed for mortality 9 days after infestation.

[11] = tested on: Myzus persicae; experiment: Example B6: Myzus persicae (Green Peach Aphid): Feeding/Contact Activity; details: foliar, 144 h, application rate of 200 ppm, sprayed sunflower leaf discs, aphid population of mixed ages, 6 days after infestation
Experimental: Example B6: Myzus persicae (Green Peach Aphid): Feeding/Contact Activity
Sunflower leaf discs were placed onto agar in a 24-well microtiter plate and sprayed with aqueous test solutions prepared from 10′000 ppm DMSO stock solutions. After drying, the leaf discs were infested with an aphid population of mixed ages. The samples were assessed for mortality 6 days after infestation.

CC(NC(=O)c1cc(C(F)(F)F)cc(S(=O)(=O)C2CC2)c1)c1nccnc1-c1ncccn1 (centres unmarked) [P10, 3-cyclopropylsulfonyl-N-[1-(3-pyrimidin-2-ylpyrazin-2-yl)ethyl]-5-(trifluoromethyl) benzamide]
≥ 80%: mortality at 24 ppm [1] | percent control (mortality or growth inhibition) at 200 ppm [2] | percent control (mortality, anti-feedant effect or growth inhibition) at 200 ppm [3] | mortality at 12 ppm [4] | percent control (mortality or growth inhibition) at 200 ppm [5] | mortality at 200 ppm [6]

CC(NC(=O)c1cc(C2CC2)nc(C(F)(F)F)c1)c1nccnc1-c1ncccn1 (centres unmarked) [P31, 2-cyclopropyl-N-[1-(3-pyrimidin-2-ylpyrazin-2-yl)ethyl]-6-(trifluoromethyl)pyridine-4-carboxamide]
≥ 80%: percent control (mortality or growth inhibition) at 200 ppm [2] | percent control (mortality, anti-feedant effect or growth inhibition) at 200 ppm [3] | mortality at 12 ppm [4] | percent control (mortality, anti-feedant effect or growth inhibition) at 200 ppm [7] | percent control (mortality or growth inhibition) at 200 ppm [8] | percent control (mortality or growth inhibition) at 200 ppm [5] | mortality at 200 ppm [6]

CC(NC(=O)c1cc(C(F)(F)F)nc(C2(C#N)CC2)c1)c1nccnc1-c1ncccn1 (centres unmarked) [P32, 2-(1-cyanocyclopropyl)-N-[1-(3-pyrimidin-2-ylpyrazin-2-yl)ethyl]-6-(trifluoromethyl)pyridine-4-carboxamide]
≥ 80%: percent control (mortality or growth inhibition) at 200 ppm [2] | percent control (mortality, anti-feedant effect or growth inhibition) at 200 ppm [3] | mortality at 12 ppm [4] | percent control (mortality, anti-feedant effect or growth inhibition) at 200 ppm [7] | percent control (mortality or growth inhibition) at 200 ppm [8] | percent control (mortality or growth inhibition) at 200 ppm [5] | mortality at 200 ppm [6]

CC(NC(=O)c1cc(C(F)(F)F)cc(C(F)(F)C2CC2)c1)c1nccnc1-c1ncc(C2CC2)cn1 (centres unmarked) [P39, 3-[cyclopropyl(difluoro)methyl]-N-[1-[3-(5-cyclopropylpyrimidin-2-yl)pyrazin-2-yl]ethyl]-5-(trifluoromethyl)benzamide]
≥ 80%: percent control (mortality or growth inhibition) at 200 ppm [2] | percent control (mortality, anti-feedant effect or growth inhibition) at 200 ppm [3] | percent control (mortality, anti-feedant effect or growth inhibition) at 12.5 ppm [9] | percent control (mortality, anti-feedant effect or growth inhibition) at 200 ppm [7] | percent control (mortality or growth inhibition) at 200 ppm [8] | mortality at 500 ppm [10]

CC(NC(=O)c1cc(OC(F)F)cc(C2(C#N)CC2)c1)c1nccnc1-c1ncccn1 (centres unmarked) [P44, 3-(1-cyanocyclopropyl)-5-(difluoromethoxy)-N-[1-(3-pyrimidin-2-ylpyrazin-2-yl)ethyl]benzamide]
≥ 80%: mortality at 200 ppm [11] | mortality at 24 ppm [1] | percent control (mortality or growth inhibition) at 200 ppm [2] | percent control (mortality, anti-feedant effect or growth inhibition) at 200 ppm [3] | mortality at 12 ppm [4] | percent control (mortality, anti-feedant effect or growth inhibition) at 200 ppm [7] | percent control (mortality or growth inhibition) at 200 ppm [8] | percent control (mortality or growth inhibition) at 200 ppm [5] | mortality at 200 ppm [6]

CC(NC(=O)c1cc(OC(F)F)cc(S(=O)(=O)C(F)(F)F)c1)c1nccnc1-c1ncccn1 (centres unmarked) [P45, 3-(difluoromethoxy)-N-[1-(3-pyrimidin-2-ylpyrazin-2-yl)ethyl]-5-(trifluoromethylsulfonyl) benzamide]
≥ 80%: mortality at 200 ppm [11] | percent control (mortality or growth inhibition) at 200 ppm [2] | percent control (mortality, anti-feedant effect or growth inhibition) at 200 ppm [3] | percent control (mortality, anti-feedant effect or growth inhibition) at 200 ppm [7]

CC(NC(=O)c1cc(OC(F)(F)F)cc(C2(C#N)CC2)c1)c1nccnc1-c1ncccn1 (centres unmarked) [P46, 3-(1-cyanocyclopropyl)-N-[1-(3-pyrimidin-2-ylpyrazin-2-yl)ethyl]-5-(trifluoromethoxy) benzamide]
≥ 80%: mortality at 200 ppm [11] | mortality at 24 ppm [1] | percent control (mortality or growth inhibition) at 200 ppm [2] | percent control (mortality, anti-feedant effect or growth inhibition) at 200 ppm [3] | mortality at 12 ppm [4] | percent control (mortality, anti-feedant effect or growth inhibition) at 200 ppm [7] | percent control (mortality or growth inhibition) at 200 ppm [8] | percent control (mortality or growth inhibition) at 200 ppm [5]
